These results are taken from ChEMBL document CHEMBL5055679, “Discovery of a Novel Androgen Receptor Antagonist Manifesting Evidence to Disrupt the Dimerization of the Ligand-Binding Domain via Attenuating the Hydrogen-Bonding Network Between the Two Monomers” (J Med Chem, 2021).

The structures appear in SMILES notation. Calls of active or inactive are those of the source. The calls are words filed in the database; no cut-off is given here.

In one series the test system is A549. Description: Cytotoxicity against human A549 cells assessed as reduction in cell viability at low concentration incubated for 72 hrs by MTT assay. It counts as functional, cell-based. On the technique in general: Tetrazolium assays rely on reduction of a dye to a coloured formazan, in cell work by metabolically active cells.
Series [1] can be described thus: Cytotoxicity against human chang cells assessed as reduction in cell viability at 50 uM incubated for 72 hrs by MTT assay. The class given is cell-based. The following applies: chang liver.
The next series deals with LNCaP C4-2. Description: Cytotoxicity against human C4-2 cells assessed as reduction in cell viability incubated for 72 hrs by MTT assay. The class given is functional, cell-based.
Another series concerns DU-145. Description: Cytotoxicity against human DU-145 cells assessed as reduction in cell viability incubated for 72 hrs by MTT assay. It counts as functional, cell-based.
Series [2] concerns the target T1, Mineralocorticoid receptor (Homo sapiens) (UniProt P08235).
T1 sequence (whole entry): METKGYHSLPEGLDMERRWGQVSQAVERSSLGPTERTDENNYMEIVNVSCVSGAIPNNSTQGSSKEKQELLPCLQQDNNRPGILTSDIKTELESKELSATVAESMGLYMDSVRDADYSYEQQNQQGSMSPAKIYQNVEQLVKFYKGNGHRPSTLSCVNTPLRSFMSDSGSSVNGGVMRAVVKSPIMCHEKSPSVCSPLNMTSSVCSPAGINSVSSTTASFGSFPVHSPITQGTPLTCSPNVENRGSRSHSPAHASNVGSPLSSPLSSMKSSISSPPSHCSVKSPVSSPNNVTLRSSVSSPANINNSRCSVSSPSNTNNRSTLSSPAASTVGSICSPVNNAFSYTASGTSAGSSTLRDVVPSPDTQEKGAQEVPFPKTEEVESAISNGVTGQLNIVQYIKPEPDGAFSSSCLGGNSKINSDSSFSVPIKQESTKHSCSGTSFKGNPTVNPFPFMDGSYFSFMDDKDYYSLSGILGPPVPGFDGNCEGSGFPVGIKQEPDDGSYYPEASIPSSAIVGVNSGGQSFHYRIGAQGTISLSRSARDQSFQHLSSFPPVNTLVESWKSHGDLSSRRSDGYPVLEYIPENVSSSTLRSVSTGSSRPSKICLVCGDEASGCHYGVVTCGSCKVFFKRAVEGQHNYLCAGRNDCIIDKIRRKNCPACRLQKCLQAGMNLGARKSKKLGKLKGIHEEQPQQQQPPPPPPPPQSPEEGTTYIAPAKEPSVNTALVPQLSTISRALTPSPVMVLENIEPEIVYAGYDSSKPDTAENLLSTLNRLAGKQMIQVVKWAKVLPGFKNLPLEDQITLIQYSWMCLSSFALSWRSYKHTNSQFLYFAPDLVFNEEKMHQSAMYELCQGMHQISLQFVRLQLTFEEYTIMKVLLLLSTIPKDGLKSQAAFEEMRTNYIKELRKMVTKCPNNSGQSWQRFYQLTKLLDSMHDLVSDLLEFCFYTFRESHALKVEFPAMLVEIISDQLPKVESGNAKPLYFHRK
Description: Agonist activity at mineralocorticoid receptor in human PC-3 cells by dual-Glo luciferase assay. The class given is cell-based.

Another series relates to CWR22R. Description: Cytotoxicity against human 22Rv1 cells assessed as reduction in cell viability incubated for 72 hrs by MTT assay. It counts as functional, cell-based.
The target of series [3] is T2, Androgen receptor (Homo sapiens) (UniProt P10275).
T2 sequence (whole entry): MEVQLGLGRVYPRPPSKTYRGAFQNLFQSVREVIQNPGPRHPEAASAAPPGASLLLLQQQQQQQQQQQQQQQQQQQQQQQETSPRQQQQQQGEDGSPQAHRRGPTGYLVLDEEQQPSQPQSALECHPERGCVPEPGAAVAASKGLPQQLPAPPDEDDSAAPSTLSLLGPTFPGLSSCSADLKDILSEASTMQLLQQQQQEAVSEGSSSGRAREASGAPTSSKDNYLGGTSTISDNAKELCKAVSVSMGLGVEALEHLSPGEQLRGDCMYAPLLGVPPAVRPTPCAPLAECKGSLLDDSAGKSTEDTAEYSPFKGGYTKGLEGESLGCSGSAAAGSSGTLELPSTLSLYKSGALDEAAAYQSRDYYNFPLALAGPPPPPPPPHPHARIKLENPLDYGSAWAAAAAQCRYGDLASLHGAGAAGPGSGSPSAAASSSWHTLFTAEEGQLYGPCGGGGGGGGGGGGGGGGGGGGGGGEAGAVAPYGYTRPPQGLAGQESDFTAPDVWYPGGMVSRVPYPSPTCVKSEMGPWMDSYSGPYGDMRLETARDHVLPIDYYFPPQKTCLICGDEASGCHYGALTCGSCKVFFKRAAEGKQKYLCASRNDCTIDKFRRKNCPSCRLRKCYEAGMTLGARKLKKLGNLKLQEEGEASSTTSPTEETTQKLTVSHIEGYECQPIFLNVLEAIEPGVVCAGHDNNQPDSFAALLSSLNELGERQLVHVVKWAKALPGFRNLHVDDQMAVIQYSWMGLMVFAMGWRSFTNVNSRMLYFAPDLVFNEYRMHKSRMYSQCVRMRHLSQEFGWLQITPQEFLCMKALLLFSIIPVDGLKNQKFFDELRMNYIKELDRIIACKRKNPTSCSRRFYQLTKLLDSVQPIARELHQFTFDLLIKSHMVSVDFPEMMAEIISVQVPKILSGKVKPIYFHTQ
Description: Antagonist activity at androgen receptor in human LNCaP cells assessed as reduction in DHT-induced endogenous PSA level at 0.1 to 10 uM after 48 hrs by Western blot analysis. Particulars: filed as antagonist, dose 0.1-10 µM. It counts as cell-based.

In the next series the test system is GES1. Description: Cytotoxicity against human GES1 cells assessed as reduction in cell viability incubated for 72 hrs by MTT assay. It counts as cell-based. Particulars: ges1, 72 h.
The subject of the next series is PC-3. As to the kind of experiment: Cytotoxicity against human PC-3 cells assessed as reduction in cell viability incubated for 72 hrs by MTT assay. The class given is functional, cell-based.
Another series concerns HepG2. Description: Cytotoxicity against human HepG2 cells assessed as reduction in cell viability at 50 uM incubated for 72 hrs by MTT assay. It counts as functional, cell-based.

Turning to `O=c1cc(C(F)(F)F)c2ccc(OCc3ccc(Br)cc3)cc2o1`, the result (with A549; in series [2]) was inactive. For the same compound, the Activity result (in [1]; in the series on GES1) was “Non-Toxic” each time. Also, the outcome (with LNCaP C4-2; in the series on DU-145; in the series with CWR22R; in series [3]; in the series with PC-3; in the series with HepG2) was Active.
